{"source": "patent EP4000614A1", "about": "“EFLOXATE FOR USE AS ANTIVIRAL AGENT” (Consejo Superior de Investigaciones Científicas (CSIC), priority 2020, dated 2022)", "key": {"[1]": {"tested_on": "229E-GFP virus", "assay": "microbe, parasite or virus in culture", "type": "cell-based, human 229E coronavirus", "settings": "72 h"}, "[2]": {"assay": "Cytotoxicity measurement by MTT assay", "type": "cell-based", "settings": "African green monkey, Vero-E6 cells", "protocol": "(§1) Cytotoxicity measurement by MTT assays (MTT assay: cell viability assay that infers reductive capacity of the cells via formation of formazan precipitates. Overall estimation of cell metabolic rate): Vero-E6 cell monolayers were treated with a wide range of compound concentrations (from 50 to 0.78 µM) and forty-eight hours later they were subjected to MTT assays following the manufacturer's instructions. Compound concentration leading to a 50% of cytotoxicity (CC50) were determined (Table 2)."}, "[3]": {"tested_on": "Vero-E6 cells", "assay": "Cytotoxicity measurement by MTT assay", "type": "cell-based", "settings": "48 hours", "protocol": "as §1"}, "[4]": {"tested_on": "SARS-CoV-2 E RNA", "assay": "Intracellular viral RNA quantitation by RT-qPCR in Vero-E6 cells", "type": "cell-based", "settings": "for VIRAL LOAD MOI 0.001 (% OF CONTROL): MOI 0.001, 48 hours, Vero-E6; for LOG DROP: relative reduction in viral RNA accumulation in log scale"}, "[5]": {"tested_on": "SARS-CoV-2 S protein-pseudotyped retroviral vectors", "type": "cell-based"}, "[6]": {"tested_on": "pseudotypes based on vesicular stomatitis virus (VSV-G) glycoprotein", "type": "cell-based"}, "[7]": {"tested_on": "RD114-pseudotypes", "type": "cell-based"}, "[8]": {"assay": "in vitro", "settings": "human"}, "[9]": {"tested_on": "SARS-CoV-2 strain NL/2020", "assay": "SARS-CoV-2 cell monolayer protection assay (crystal violet) in Vero-E6 cells"}}, "data": [{"smiles": "CCOC(=O)COc1ccc2c(=O)cc(-c3ccccc3)oc2c1", "note": "[Efloxate, efloxate]", "values": [{"measurement": "EC50", "setting": "[1]; human coronavirus 229E", "result": 1.6, "unit": "µM"}, {"measurement": "EC90", "setting": "[1]; unidentified human coronavirus", "result": 5, "unit": "µM"}, {"measurement": "CC50 at 48 h", "setting": "[2]", "result": "> 50", "unit": "µM"}, {"measurement": "HIGHEST NON-TOXIC CONCENTRATION (MTT)", "setting": "[3]", "result": 12.5}, {"measurement": "VIRAL LOAD MOI 0.001 (% OF CONTROL)", "setting": "[4]; dose 12.5 µM", "result": 27.42, "unit": "% OF CONTROL"}, {"measurement": "VIRAL LOAD MOI 0.001 (% OF CONTROL)", "setting": "[4]; dose 25 µM", "result": 24.34, "unit": "% OF CONTROL"}, {"measurement": "VIRAL LOAD MOI 0.001 (% OF CONTROL)", "setting": "[4]; dose 35 µM", "result": 0.00, "unit": "% OF CONTROL"}, {"measurement": "VIRAL LOAD MOI 0.001 (% OF CONTROL)", "setting": "[4]; dose 50 µM", "result": 0.06, "unit": "% OF CONTROL"}, {"measurement": "LOG DROP", "setting": "[4]; dose 12.5 µM", "result": 0.55}, {"measurement": "LOG DROP", "setting": "[4]; dose 25 µM", "result": 0.6}, {"measurement": "LOG DROP", "setting": "[4]; dose 35 µM", "result": 5.5}, {"measurement": "LOG DROP", "setting": "[4]; dose 50 µM", "result": 3.2}, {"measurement": "Spp (% of control)", "setting": "[5]", "result": "16.68 % of control"}, {"measurement": "pseudotype entry selectivity", "setting": "[5]", "result": "interfere selectively with Spp entry"}, {"measurement": "VSVpp (% of control)", "setting": "[6]", "result": "106.24 % of control"}, {"measurement": "RD114pp (% of control)", "setting": "[7]", "result": "153.15 % of control"}, {"measurement": "CC50 at 72 h", "setting": "[8]", "result": 35, "unit": "µM"}, {"measurement": "PC MAX", "setting": "[9]; Maximum concentration that protects cells (100%) from the cytopathic effect, Vero-E6, MOI 0.001, 72 hours", "result": 50, "unit": "µM"}, {"measurement": "PC MIN", "setting": "[9]; Minimum concentration that protects cells (100%) from the cytopathic effect, Vero-E6, MOI 0.001, 72 hours", "result": 25, "unit": "µM"}, {"measurement": "antiviral activity at non-cytotoxic concentrations", "setting": "[9]; human coronavirus, including SARS-CoV-2", "result": "12.5 to 50", "unit": "µM"}]}]}
